We go through 13 compounds from PubChem BioAssay AID1794801 (Yongcheng Song lab at Baylor College of Medicine, 2022).

Each structure is given as a SMILES string. The source made the active and inactive calls.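 Rule for the calls: active = compounds that disrupt AF9 binding to the DOT1L peptide with an IC50 under 30 µM; inactive = the rest.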 A value given as a limit tells only on which side of the number the result lay.

The target in this test is Protein AF-9 (Homo sapiens) (UniProt P42568). In words: AF9–DOT1L protein-protein binding disruptors – biochemical, AlphaLISA, MBP-tagged AHD, biotinylated peptide, dose response (AID 1794801). Particulars: MBP-AF9 AHD and biotin-DOT1L peptide. (In general: Bead proximity is the source of the signal in Alpha formats.)
Chain of Protein AF-9 (Homo sapiens) (P42568 whole entry, looked up): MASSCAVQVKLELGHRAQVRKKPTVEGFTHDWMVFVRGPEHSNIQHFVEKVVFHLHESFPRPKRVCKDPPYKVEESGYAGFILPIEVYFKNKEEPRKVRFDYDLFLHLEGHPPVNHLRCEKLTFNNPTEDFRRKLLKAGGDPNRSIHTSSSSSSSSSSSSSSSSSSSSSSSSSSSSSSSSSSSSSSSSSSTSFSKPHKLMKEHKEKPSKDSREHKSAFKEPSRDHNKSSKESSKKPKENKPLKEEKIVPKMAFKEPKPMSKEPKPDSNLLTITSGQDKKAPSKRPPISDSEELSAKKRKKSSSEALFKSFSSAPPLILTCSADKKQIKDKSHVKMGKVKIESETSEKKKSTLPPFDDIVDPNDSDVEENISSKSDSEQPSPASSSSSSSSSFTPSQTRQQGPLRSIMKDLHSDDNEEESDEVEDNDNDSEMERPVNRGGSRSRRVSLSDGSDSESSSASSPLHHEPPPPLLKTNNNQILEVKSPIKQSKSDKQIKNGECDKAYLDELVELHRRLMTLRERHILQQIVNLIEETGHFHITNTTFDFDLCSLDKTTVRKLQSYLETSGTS
Usually IC50 stands for the concentration needed to halve the response being measured. For the compound `O=C(NCC1CCNCC1)c1cc2ccc(-c3ccc(N4CCCCC4)cc3)cc2s1`, the IC50 is 1.6 µM. With `O=C(NCC1CCNCC1)c1cc2ccc(Nc3ccc(N4CCCCC4)cc3)cc2s1`, the IC50 was 2.3 µM. With `O=C(NCC1CCNCC1)c1cc2ccc(Nc3ccc(N4CCCCC4)cc3)cc2o1` the figure was 4.6 µM. Take `O=C(NCC1CCNCC1)c1cc2ccc(-c3ccc(N4CCCC4)cc3)cc2[nH]1`: the half-maximal inhibitory concentration (IC50) is 2.8 µM. Regarding `O=C(NCC1CCNCC1)c1cc2cc(-c3ccc(N4CCCCC4)cc3)ccc2[nH]1`, the IC50 is 3.6 µM. As for `O=C(NCC1CCNCC1)c1cc2ccc(-c3ccc(N4CCCC4)cc3)cc2s1`, the IC50 was 5.3 µM. As to `O=C(NCC1CCNCC1)c1cc2cc(-c3ccc(N4CCCC4)cc3)ccc2[nH]1`, the IC50 is 2.7 µM. Consider `O=C(NCC1CCNCC1)c1c[nH]c2cc(-c3ccc(N4CCCCC4)cc3)ccc12`, for which the IC50 was 4.5 µM. As to `O=C(NCC1CCNCC1)c1cc2cc(-c3ccc(N4CCCCC4)cc3)ccc2s1`, the IC50 was 2.5 µM. With `O=C(NCC1CCNCC1)c1c[nH]c2cc(-c3ccc(N4CCCC4)cc3)ccc12` the figure was 2.9 µM; with `O=C(NCC1CCNCC1)c1cc2cc(-c3cn[nH]c3)ccc2[nH]1`, > 30 µM (inactive); with `NCc1ccc(-c2ccc3cc(C(=O)NCC4CCNCC4)oc3c2)cc1`, > 30 µM (inactive).

In the case of `O=C(NCC1CCNCC1)c1cc2ccc(-c3ccc(N4CCCCC4)cc3)cc2[nH]1`, the IC50 is 3.3 µM.
